Structures are written as SMILES. Structures can show the parent of a compound that is named as a salt.

These results are taken from patent US5116839A, “Use of isoxazolin-3-one derivatives as antidepressants” (Sankyo Company, Limited, priority 1989, dated 1992).

One series relates to reserpine-induced ptosis. The series can be described thus: Effect on reserpine-induced ptosis in the mouse. Type of series: in vivo, mouse (male ddY). Conditions: reserpine 2 mg/kg s.c.; for inhibition at 100 mg/kg / inhibition at 30 mg/kg / inhibition at 3 mg/kg / inhibition at 10 mg/kg: Mus musculus, 1.5 h, scored after 90 minutes, read-out: Inhibition rate (antagonism against reserpine-induced ptosis). The procedure: (§1) The procedure employed in the tests will be explained concretely below:
1. Effect on reserpine-induced ptosis in the mouse
Male ddY mice (4 weeks of age, body weight 22-27 g) were used, divided into the indicated groups each consisting of 3 or 6 animals. The test compounds were dissolved or suspended in an appropriate solvent (physiological saline, 0.5% CMC or 1% dimethylsulfoxide solution) and were orally administered immediately before treatment with reserpine.
The vials containing the test solutions were labeled with coded ciphers and the administration was carried out in randomized order.
The mice were then subcutaneously treated with reserpine at a dose of 2 mg/kg. After 90 minutes, the extent of ptosis was scored. Grading of the score was based on the shape of eye immediately after the mice were taken out from their cages;
0: round eye shape, as normal
The inhibition rate at each dose was calculated from the scores according to the following equation: [formula] The inhibition rate was then scored on the following basis: […]

The nature of a further series: Acute toxicity, oral. Type of series: in vivo. The following applies: 300 mg/kg oral in 0.5% CMC, 5 mice, observed 5 days; Compound 36 as its hydrochloride. The procedure:
Each of the Compounds 11, 36 (as its hydrochloride), 53, 76, and 87 dissolved in a 0.5% CMC solution was orally administered to 5 mice at a dose of 300 mg/kg. Observations were made for a period of 5 days.

For series [1] the following is noted: apparently exerted; cited from earlier work.
The test system of series [2] is spontaneous locomotor activities in mice treated with L-DOPA. The series can be described thus: Potentiating effect upon spontaneous locomotor activities in mice treated with L-DOPA. Type of series: in vivo, mouse (male ddY). The following applies: for Average locomotor activities (+/- S.E.): 1 hour, MK-486 20 mg/kg i.p. then L-DOPA i.p. The protocol:
as §1
2. Potentiating effect of compounds upon spontaneous locomotor activities in mice treated with L-DOPA
Male ddY mice (5 weeks old, body weight 30-33 g) were used, after divided into groups each consisting of 5 animals (experiment 1) or 15 animals (experiment 2). The test compounds were prepared as described in the anti-reserpine study, and given orally 20 minutes before administration of MK-486. In control animals, saline was similarly administered. In order to prevent decomposition of L-DOPA at the peripheral site, the mice were intraperitoneally given MK-486 (carbidopa) at a dose of 20 mg/kg and treated intraperitoneally 30 minutes later with L-DOPA. The mice were placed in a cage on a locomotor activity counter (AUTOMEX-11), one-by-one (experiment 1) or 3 mice a cage (experiment 2). Spontaneous locomotor activities were determined for an hour, and the average locomotor activity at each dose was calcultated from 5 counts. The spontaneous locomotor activity in animals treated with the compound was statistically analyzed versus the control group using Student's two-tailed t-test.

Series [3] has as its system spontaneous locomotor activities in mice treated with L-5-HTP. The series can be described thus: Potentiating effect upon spontaneous locomotor activities in mice treated with L-5-HTP. The format is in vivo, mouse (male ddY). Conditions: 3 mg/kg oral; MK-486 20 mg/kg i.p.; L-5-HTP 100 mg/kg i.p.; 15 mice; 1 hour; saline 2147(+/-334); P <0.01. The procedure: as §1
3. Potentiating effect of compounds upon spontaneous locomotor activities in mice treated with L-5-HTP
Male ddY mice (4 weeks old, body weight 22-25 g) were used, after divided into groups each consisting of 15 mice. Before administration of MK-486 (20 mg/kg, IP), either the test compound formulation or vehicle (control group) was orally administered. At 30 min after administration of […], L-5-HTP (100 mg/kg IP) was injected. Spontaneous locomotor activities were determined from 15 minutes after L-5-HTP. For this determination, 3 mice were placed in a locomotor counter (Automex) for an hour and the total count noted. Five such apparatuses were used for each dose, in order to eliminate different sensitivities of each apparatus. Thus, 15 mice were used in total for each dose. The average count and SE were calculated from the 5 determinations for each dose, and statistically analyzed versus control group using Student's two-tailed t-test.

As for `OC(COc1cc(-c2ccc(Cl)cc2)on1)CN1CCOCC1` (stereo not drawn) [Compound 76, 5-(p-Chlorophenyl)-3-(2-hydroxy-3-morpholinopropoxy)isoxazole], in the series with reserpine-induced ptosis (100 mg/kg oral), the “Score (antagonism against reserpine-induced ptosis)” value (from here on “Score”) was “+ (71% or more)” and the inhibition at 100 mg/kg came to 71%. For the same compound, in “Acute toxicity, oral”, the “Survival (acute toxicity)” value was “all the mice survived” and the “Symptoms (acute toxicity)” value is listed as “No particular symptoms were detected”.
On to `CN(C)CCCN1c2ccccc2CCc2ccccc21` [Imipramine.HCl, reference compound], for which, in the series with reserpine-induced ptosis (30 mg/kg oral), the “Score” value is “± (41% to 70%)” and the inhibition at 30 mg/kg came to 61%.
In the case of `NC(=O)OCC(O)Cn1oc2ccc(Cl)cc2c1=O` (stereo not drawn) [Compound 87, 2-(3-Carbamoyloxy-2-hydroxypropyl)-5-chlorobenzoisoxazolin-3-one], in the series on reserpine-induced ptosis (30 mg/kg oral), the “Score” value is “+ (71% or more)” and the inhibition at 30 mg/kg stood at 75%. In addition, in the series with reserpine-induced ptosis (100 mg/kg oral), the “Score” value is “+ (71% or more)” and the inhibition at 100 mg/kg stood at 100%. Besides, in the series “Acute toxicity, oral”, the “Survival (acute toxicity)” value is “all the mice survived” and the “Symptoms (acute toxicity)” value is “No particular symptoms were detected”.
`OC(COc1noc(-c2ccccc2)c1Cl)CN1CCOCC1` (stereo not drawn) [Compound 53, 4-Chloro-3-(2-hydroxy-3-morpholino-propoxy)-5-phenylisoxazole]: in the series on reserpine-induced ptosis (30 mg/kg oral), the “Score” value is listed as “± (41% to 70%)” and the inhibition at 30 mg/kg came out at 55%. In addition, in the series “Acute toxicity, oral”, the “Survival (acute toxicity)” value is listed as “all the mice survived” and the “Symptoms (acute toxicity)” value is reported as “No particular symptoms were detected”.
With `OC(COc1cc(-c2ccccc2)on1)CN1CCOCC1` (stereo not drawn) [Compound 36, 3-(2-Hydroxy-3-morpholinopropoxy)-5-phenylisoxazole], in the series with reserpine-induced ptosis (100 mg/kg oral), the “Score” value was “+ (71% or more)” and the inhibition at 100 mg/kg turned out to be 71%. In the series “Acute toxicity, oral”, the “Survival (acute toxicity)” value is “all the mice survived” and the “Symptoms (acute toxicity)” value is listed as “No particular symptoms were detected”.
Regarding `CN(C)CCCN1c2ccccc2CCc2ccccc21` [imipramine, 10,11-dihydro-N,N-dimethyl-5H-dibenz[b,f]azepine-5-propanamine], the “Anticholinergic activity of reference (in words)” value in series [1] was “anticholinergic activity which is apparently exerted”.
Turning to `O=c1cc(-c2ccc(Cl)cc2)on1C[C@@H](O)CN1CCOCC1` [Compound 22, (S)-5-(p-Chlorophenyl)-2-(2-hydroxy-3-morpholinopropyl)isoxazolin-3-one], in the series on reserpine-induced ptosis (3 mg/kg oral), the “Score” value is “± (41% to 70%)” and the inhibition at 3 mg/kg turned out to be 56%. Also, in the series on reserpine-induced ptosis (10 mg/kg oral), the “Score” value is “± (41% to 70%)” and the inhibition at 10 mg/kg worked out at 81%. Also, in the series on reserpine-induced ptosis (30 mg/kg oral), the “Score” value is on record as “+ (71% or more)” and the inhibition at 30 mg/kg amounted to 100%. Further, in series [2] (experiment 2: 50 mg/kg oral, 15 mice, 3 mice a cage, control 666(+/-137), P <0.001), the “Average locomotor activities (+/- S.E.)” value is listed as 6013(+/-629). Also, the “Average spontaneous locomotor activity (+/- SE)” value in series [3] is listed as 3544(+/-318).
Consider `O=c1cc(-c2ccc(Cl)cc2)on1CC(O)CN1CCOCC1` (stereo not drawn) [Compound 11, 5-p-chlorophenyl-2-(2-hydroxy-3-morpholinopropyl)-4-isoxazolin-3-one], for which, in the series on reserpine-induced ptosis (3 mg/kg oral), the “Score” value was “± (41% to 70%)” and the inhibition at 3 mg/kg was 50%. In the series on reserpine-induced ptosis (10 mg/kg oral), the “Score” value was “± (41% to 70%)” and the inhibition at 10 mg/kg was 56%. In the series on reserpine-induced ptosis (30 mg/kg oral), the “Score” value is reported as “+ (71% or more)” and the inhibition at 30 mg/kg is 72%. Moreover, the “Spontaneous locomotor activity with treatment of L-DOPA (in words)” value in series [2] (50 mg/kg) is “significantly increased”. The “Average locomotor activities (+/- S.E.)” value in series [2] (experiment 1: 50 mg/kg oral, 5 mice one-by-one, control 160(+/-128), P <0.05) is listed as 3355(+/-878). In “Acute toxicity, oral”, the “Survival (acute toxicity)” value is “all the mice survived” and the “Symptoms (acute toxicity)” value is reported as “No particular symptoms were detected”.

By inhibition is commonly meant the drop in the measured response relative to a control, in per cent.
